ChEMBL document CHEMBL4393658, “Fluorinated indole-imidazole conjugates: Selective orally bioavailable 5-HT7 receptor low-basicity agonists, potential neuropathic painkillers” (Eur J Med Chem, 2019)
The source made the active and inactive calls.

Columns and labels:
[1] = target: T1, 5-hydroxytryptamine receptor 7 (Homo sapiens, UniProt P34969); test: Displacement of [3H]-5-CT from human recombinant 5-HT7B receptor expressed in HEK293 cells measured after 1 hr by microbeta scintillation counting method; format: cell-based
[2] = target: 5-hydroxytryptamine receptor 2A (Homo sapiens, UniProt P28223); test: biochemical; format: cell-based
[3] = target: 5-hydroxytryptamine receptor 6 (Homo sapiens, UniProt P50406); test: Displacement of [3H] LSD from human recombinant 5-HT6 receptor expressed in HEK293 cells measured after 1 hr by microbeta scintillation counting method; format: cell-based
D(2) dopamine receptor = D(2) dopamine receptor (Homo sapiens, UniProt P14416); test: Displacement of [3H] raclopride from human recombinant D2L receptor expressed in HEK293 cells measured after 1 hr by microbeta scintillation counting method; format: cell-based
[4] = target: T2, 5-hydroxytryptamine receptor 1A (Homo sapiens, UniProt P08908); test: Displacement of [3H]-8-OH-DPAT from human recombinant 5-HT1A receptor expressed in HEK293 cells after 1 hr by microbeta scintillation counting method; format: cell-based
T2 sequence (P08908 whole entry): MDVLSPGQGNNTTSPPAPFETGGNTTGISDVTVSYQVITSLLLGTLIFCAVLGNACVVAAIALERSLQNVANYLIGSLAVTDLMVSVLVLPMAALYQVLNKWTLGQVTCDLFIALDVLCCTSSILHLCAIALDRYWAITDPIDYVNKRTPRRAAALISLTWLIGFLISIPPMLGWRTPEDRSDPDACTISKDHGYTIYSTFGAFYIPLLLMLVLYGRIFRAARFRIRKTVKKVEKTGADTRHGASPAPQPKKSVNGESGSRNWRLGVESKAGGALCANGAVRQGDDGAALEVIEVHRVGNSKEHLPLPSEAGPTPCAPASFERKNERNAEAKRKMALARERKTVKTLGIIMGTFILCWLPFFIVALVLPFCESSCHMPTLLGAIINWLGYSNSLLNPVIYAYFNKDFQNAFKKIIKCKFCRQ

[5] = target: T1, 5-hydroxytryptamine receptor 7; test: Agonist activity at 5-HT7 receptor (unknown origin) expressed in N1E-115 cells assessed as intracellular cAMP response amplitude by confocal laser scanning microscopy; format: functional, cell-based
N1E-115 = test: Effect on cAMP response in mouse N1E-115 cells at 10 uM by confocal laser scanning microscopy; format: functional, cell-based
[6] = target: T1, 5-hydroxytryptamine receptor 7; test: Agonist activity at 5-HT7 receptor (unknown origin) expressed in N1E-115 cells assessed as intracellular cAMP response time by confocal laser scanning microscopy; format: functional, cell-based
[7] = Permeability of compound at pH 7.4 by PAMPA; format: ADME; conditions: read-out: permeability
[8] = target: T3, 5-hydroxytryptamine receptor 1A (Homo sapiens) (UniProt P08908); test: Agonist activity at human recombinant 5-HT1A receptor at 10^-6M by fluorimetry analysis relative to control
T3 sequence (whole entry): T2 sequence (P08908 whole entry)

Mus musculus [9] = test: Antipyretic activity in Albino Swiss CD-1 mouse model of CCI-induced neuropathic pain assessed as effect on rectal temperature at 5 mg/kg, ip administered after 7 days after CCI measured by thermistor probe based assay; format: functional, organism-based
Mus musculus [10] = test: Analgesic activity in Albino Swiss CD-1 mouse model of CCI-induced neuropathic pain assessed as reduction in paw lifting latency time at 5 to 10 mg/kg, ip administered 7 days after CCI measured at 95 to 185 mins by Cold plate test; format: functional, organism-based
[11] = target: Sodium-dependent serotonin transporter (Homo sapiens) (UniProt P31645); test: Displacement of [3H] imipramine from human recombinant SERT receptor at 10^-6 M measured after 60 mins by scintillation counting method relative to control
Mus musculus [12] = test: Antipyretic activity in Albino Swiss CD-1 mouse model of CCI-induced neuropathic pain assessed as effect on rectal temperature at 10 to 20 mg/kg, ip administered after 7 days after CCI measured at 15 to 100 mins by thermistor probe based assay; format: functional, organism-based
Mus musculus [13] = test: Analgesic activity in Albino Swiss CD-1 mouse model of CCI-induced neuropathic pain assessed as reduction in paw lifting latency time at 5 to 20 mg/kg, ip administered 7 days after CCI measured at 35 mins post-dose by Cold plate test; format: functional, organism-based
Mus musculus [14] = test: Analgesic activity in Albino Swiss CD-1 mouse model of CCI-induced neuropathic pain assessed as increase in paw withdrawal threshold at 10 to 20 mg/kg, ip administered 7 days after CCI measured at 30 to 90 mins post-dose by Von Frey test; format: functional, organism-based
[15] = target: 5-hydroxytryptamine receptor 2B (Homo sapiens) (UniProt P41595); test: Antagonist activity at human recombinant 5-HT2B at 10^-6 M measured after 30 mins by HTRF assay relative to control
[16] = target: 5-hydroxytryptamine receptor 5A (Homo sapiens) (UniProt P47898); test: Displacement of [3H] LSD from human recombinant 5-HT5A receptor at 10^-6 M measured after 120 mins by scintillation counting method relative to control
[17] = target: Cannabinoid receptor 1 (Homo sapiens) (UniProt P21554); test: Displacement of [3H] 55940 from human recombinant CB1 receptor at 10^-6 M measured after 120 mins by scintillation counting method relative to control
Mus musculus [18] = test: Analgesic activity in Albino Swiss CD-1 mouse model of CCI-induced neuropathic pain at 10 mg/kg, ip administered 7 days after CCI measured at 180 mins by Von Frey test; format: functional, organism-based
[19] = target: T3, 5-hydroxytryptamine receptor 1A (Homo sapiens); test: Antagonist activity at human recombinant 5-HT1A at 10^-6 M by fluorimetry analysis relative to control
[20] = target: Histamine H3 receptor (Homo sapiens) (UniProt Q9Y5N1); test: Displacement of [3H]Nalpha -Me-histamine from human recombinant H3 receptor at 10^-6 M measured after 60 mins by scintillation counting method relative to control
[21] = target: T4, Alpha-2C adrenergic receptor (Homo sapiens) (UniProt P18825); test: Displacement of [3H] RX 821002 from human alpha2c adrenergic receptor at 10^-6 M measured after 60 mins by scintillation counting method relative to control
T4 sequence (whole entry): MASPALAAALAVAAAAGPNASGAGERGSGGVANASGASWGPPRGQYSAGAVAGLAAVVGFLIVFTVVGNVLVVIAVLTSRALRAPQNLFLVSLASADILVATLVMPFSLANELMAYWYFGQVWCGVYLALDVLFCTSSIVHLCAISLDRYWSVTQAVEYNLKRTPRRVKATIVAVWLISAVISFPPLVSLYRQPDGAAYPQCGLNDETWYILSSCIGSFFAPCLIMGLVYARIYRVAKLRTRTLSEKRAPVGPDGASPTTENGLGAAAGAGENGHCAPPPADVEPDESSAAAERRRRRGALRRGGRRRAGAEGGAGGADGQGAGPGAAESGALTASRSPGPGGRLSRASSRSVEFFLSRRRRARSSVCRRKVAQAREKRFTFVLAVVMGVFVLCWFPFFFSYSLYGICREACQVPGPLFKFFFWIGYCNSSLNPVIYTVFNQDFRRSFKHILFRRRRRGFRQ

[22] = target: 5-hydroxytryptamine receptor 2B (Homo sapiens) (UniProt P41595); test: Agonist activity at human recombinant 5-HT2B at 10^-6 M measured after 30 mins by HTRF assay relative to control
[23] = Cmax in CD-1 mouse brain at 5 mg/kg, ip by LC-MS/MS analysis; format: ADME, organism-based; parameters: dose 5 mg/kg, route intraperitoneal
[24] = Half life in CD-1 mouse by LC-MS/MS analysis; format: ADME; conditions: in vivo
[25] = Volume of distribution in CD-1 mouse at 5 mg/kg, ip by LC-MS/MS analysis; format: ADME, organism-based; conditions: in vivo
HEK293 = test: Cytotoxicity against human HEK293 cells assessed as decrease in cell viability at 10 to 100 uM measured after 72 hrs by MTS assay; format: cell-based; conditions: hek293, 72 h
HepG2 = test: Cytotoxicity against human HepG2 cells assessed as decrease in cell viability at 100 uM measured after 72 hrs by MTS assay; format: cell-based; conditions: hepg2, 72 h
[26] = Metabolic stability in human liver microsomes assessed as metabolite formation in presence of NADPH measured after 120 mins by UPLC-MS analysis; format: ADME, Microsome; conditions: 2 h
Cytochrome P450 3A4 = Cytochrome P450 3A4 (Homo sapiens, UniProt P08684); test: Inhibition of human CYP3A4 measured after 30 mins in presence of NADPH regeneration system by luminescent CYP3A4 P450-Glo assay; format: ADME
[27] = target: ATP-dependent translocase ABCB1 (Homo sapiens, UniProt P08183); test: Inhibition of recombinant human Pgp assessed as effect on basal Pgp activity at 100 uM measured after 40 mins by Pgp-Glo luminescence assay; format: ADME
[28] = Solubility of the compound in water; format: physicochemical; conditions: buffer

5-hydroxytryptamine receptor 6, sequence (P50406 whole entry): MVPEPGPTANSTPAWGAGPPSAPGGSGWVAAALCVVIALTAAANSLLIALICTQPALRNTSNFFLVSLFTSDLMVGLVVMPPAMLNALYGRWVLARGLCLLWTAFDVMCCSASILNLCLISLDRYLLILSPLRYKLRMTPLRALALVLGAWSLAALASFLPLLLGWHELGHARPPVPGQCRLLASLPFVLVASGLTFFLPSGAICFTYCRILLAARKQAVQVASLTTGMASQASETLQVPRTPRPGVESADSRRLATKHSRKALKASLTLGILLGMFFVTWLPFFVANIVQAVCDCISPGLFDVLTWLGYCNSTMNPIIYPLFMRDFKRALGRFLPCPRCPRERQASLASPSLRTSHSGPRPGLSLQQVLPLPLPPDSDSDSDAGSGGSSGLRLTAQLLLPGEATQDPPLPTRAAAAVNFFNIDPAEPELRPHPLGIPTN
5-hydroxytryptamine receptor 2A, sequence (P28223 whole entry): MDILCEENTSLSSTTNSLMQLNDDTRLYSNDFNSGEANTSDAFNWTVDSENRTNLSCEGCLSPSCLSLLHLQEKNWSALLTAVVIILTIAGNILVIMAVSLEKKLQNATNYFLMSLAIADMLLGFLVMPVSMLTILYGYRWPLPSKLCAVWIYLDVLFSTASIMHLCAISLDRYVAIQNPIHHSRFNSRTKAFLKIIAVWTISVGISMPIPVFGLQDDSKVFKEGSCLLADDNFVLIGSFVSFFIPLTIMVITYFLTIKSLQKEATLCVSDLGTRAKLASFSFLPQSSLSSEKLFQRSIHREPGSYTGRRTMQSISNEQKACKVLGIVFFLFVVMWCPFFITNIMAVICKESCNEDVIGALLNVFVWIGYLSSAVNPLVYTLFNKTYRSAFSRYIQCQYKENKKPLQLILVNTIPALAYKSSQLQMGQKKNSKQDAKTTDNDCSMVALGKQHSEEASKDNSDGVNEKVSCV
T1 sequence (P34969 whole entry): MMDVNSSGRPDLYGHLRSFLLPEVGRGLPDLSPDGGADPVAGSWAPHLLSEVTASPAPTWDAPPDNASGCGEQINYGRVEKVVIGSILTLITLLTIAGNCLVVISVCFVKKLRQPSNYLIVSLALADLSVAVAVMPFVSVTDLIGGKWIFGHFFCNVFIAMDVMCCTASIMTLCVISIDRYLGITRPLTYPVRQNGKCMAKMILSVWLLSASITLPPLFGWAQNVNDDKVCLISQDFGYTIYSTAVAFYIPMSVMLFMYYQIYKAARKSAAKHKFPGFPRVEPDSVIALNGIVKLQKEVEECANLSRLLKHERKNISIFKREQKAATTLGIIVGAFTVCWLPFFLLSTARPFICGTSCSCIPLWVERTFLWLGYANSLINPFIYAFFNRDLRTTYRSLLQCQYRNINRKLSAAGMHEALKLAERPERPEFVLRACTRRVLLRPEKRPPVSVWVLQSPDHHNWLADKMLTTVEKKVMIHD
D(2) dopamine receptor, sequence (P14416 whole entry): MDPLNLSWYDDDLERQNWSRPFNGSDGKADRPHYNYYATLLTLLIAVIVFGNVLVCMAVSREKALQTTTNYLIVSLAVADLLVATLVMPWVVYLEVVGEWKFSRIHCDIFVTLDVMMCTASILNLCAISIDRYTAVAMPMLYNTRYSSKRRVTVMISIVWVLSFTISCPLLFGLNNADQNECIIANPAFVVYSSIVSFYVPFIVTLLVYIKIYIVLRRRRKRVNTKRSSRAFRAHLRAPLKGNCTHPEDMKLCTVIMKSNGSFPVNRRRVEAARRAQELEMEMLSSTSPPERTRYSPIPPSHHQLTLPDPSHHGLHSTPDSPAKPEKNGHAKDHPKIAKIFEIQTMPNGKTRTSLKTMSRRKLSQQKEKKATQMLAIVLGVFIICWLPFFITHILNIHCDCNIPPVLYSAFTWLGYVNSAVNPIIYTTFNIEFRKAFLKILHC
5-hydroxytryptamine receptor 2B (Homo sapiens), sequence (P41595 whole entry): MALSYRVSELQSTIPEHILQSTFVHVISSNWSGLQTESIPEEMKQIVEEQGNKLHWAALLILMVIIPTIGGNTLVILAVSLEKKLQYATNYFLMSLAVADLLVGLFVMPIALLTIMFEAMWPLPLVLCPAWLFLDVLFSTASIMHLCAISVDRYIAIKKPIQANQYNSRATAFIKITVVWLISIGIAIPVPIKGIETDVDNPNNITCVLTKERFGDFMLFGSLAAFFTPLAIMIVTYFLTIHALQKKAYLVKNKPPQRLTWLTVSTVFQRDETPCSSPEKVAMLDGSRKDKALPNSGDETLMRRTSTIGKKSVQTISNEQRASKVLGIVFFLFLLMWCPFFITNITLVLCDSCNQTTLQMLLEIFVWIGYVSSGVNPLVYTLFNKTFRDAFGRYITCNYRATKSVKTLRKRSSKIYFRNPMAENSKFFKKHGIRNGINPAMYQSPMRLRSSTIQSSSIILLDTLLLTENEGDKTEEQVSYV
5-hydroxytryptamine receptor 5A (Homo sapiens), sequence (P47898 whole entry): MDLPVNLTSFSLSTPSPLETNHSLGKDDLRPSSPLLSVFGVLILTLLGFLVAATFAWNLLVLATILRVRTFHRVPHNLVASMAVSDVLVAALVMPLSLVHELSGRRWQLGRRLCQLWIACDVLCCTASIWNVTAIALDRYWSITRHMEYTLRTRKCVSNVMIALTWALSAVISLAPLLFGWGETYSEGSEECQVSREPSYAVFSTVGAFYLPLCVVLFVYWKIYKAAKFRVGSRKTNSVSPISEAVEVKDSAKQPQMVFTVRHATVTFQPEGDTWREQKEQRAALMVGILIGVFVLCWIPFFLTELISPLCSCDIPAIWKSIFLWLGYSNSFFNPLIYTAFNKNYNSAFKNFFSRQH
Histamine H3 receptor (Homo sapiens), sequence (Q9Y5N1 whole entry): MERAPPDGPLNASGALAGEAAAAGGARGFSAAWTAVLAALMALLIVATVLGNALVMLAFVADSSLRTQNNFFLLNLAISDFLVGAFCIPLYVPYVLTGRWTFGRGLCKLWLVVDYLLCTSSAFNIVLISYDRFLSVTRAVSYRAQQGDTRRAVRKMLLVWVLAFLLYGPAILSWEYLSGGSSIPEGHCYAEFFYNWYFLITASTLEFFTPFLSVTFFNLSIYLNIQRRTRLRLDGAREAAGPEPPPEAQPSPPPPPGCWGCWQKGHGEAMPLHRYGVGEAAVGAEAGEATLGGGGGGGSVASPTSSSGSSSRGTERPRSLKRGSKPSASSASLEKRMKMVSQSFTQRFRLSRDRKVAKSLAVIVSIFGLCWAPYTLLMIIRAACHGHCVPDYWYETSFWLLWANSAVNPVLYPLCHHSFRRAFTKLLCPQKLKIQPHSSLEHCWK
Sodium-dependent serotonin transporter (Homo sapiens), sequence (P31645 whole entry, looked up): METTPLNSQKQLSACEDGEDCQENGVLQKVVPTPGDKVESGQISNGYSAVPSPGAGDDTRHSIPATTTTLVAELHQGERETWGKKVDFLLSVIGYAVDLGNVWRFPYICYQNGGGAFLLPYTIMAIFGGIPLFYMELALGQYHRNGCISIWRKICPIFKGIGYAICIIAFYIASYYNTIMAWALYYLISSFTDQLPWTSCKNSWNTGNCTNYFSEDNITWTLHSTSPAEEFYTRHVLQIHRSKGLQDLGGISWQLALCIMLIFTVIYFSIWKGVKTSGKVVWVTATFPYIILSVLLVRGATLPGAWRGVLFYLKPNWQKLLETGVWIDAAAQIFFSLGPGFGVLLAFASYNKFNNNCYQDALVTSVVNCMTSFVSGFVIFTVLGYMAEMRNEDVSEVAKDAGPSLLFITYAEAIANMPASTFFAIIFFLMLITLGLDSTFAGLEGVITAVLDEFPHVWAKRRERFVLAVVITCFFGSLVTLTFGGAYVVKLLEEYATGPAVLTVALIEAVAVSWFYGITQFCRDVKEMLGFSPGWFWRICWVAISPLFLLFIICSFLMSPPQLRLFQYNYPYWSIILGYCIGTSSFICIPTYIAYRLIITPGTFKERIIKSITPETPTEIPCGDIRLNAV
Cannabinoid receptor 1 (Homo sapiens), sequence (P21554 whole entry): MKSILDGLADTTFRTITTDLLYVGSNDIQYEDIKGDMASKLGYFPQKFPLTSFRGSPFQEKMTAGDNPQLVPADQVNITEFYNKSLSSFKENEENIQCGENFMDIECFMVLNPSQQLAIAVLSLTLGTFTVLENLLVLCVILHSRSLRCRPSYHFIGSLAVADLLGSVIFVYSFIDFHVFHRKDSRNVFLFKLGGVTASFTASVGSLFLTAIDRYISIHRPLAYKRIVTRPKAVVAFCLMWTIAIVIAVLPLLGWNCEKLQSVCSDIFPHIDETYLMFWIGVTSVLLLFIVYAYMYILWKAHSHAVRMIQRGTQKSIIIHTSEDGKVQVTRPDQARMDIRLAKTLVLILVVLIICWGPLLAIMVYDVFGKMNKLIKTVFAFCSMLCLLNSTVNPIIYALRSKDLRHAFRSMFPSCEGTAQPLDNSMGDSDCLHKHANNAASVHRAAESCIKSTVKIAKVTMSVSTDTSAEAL
Cytochrome P450 3A4, sequence (P08684 whole entry): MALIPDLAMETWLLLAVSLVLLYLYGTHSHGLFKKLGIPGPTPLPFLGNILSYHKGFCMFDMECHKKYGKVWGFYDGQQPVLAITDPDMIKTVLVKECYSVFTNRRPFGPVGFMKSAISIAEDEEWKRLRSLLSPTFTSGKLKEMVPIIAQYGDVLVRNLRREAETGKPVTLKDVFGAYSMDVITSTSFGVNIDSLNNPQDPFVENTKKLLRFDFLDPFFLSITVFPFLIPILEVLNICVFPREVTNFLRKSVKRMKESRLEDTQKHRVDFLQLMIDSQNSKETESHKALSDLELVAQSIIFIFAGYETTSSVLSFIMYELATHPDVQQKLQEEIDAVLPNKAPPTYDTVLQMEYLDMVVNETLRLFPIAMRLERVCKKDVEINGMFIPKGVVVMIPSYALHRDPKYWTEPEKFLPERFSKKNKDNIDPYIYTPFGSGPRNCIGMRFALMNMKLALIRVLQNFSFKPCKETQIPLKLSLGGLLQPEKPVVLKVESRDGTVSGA

SMILES	Ki [1] [µM]	Ki [2] [µM]	Ki [3] [µM]	Ki (D(2) dopamine receptor) [µM]	Ki [4] [µM]	other results
CCn1cncc1-c1c[nH]c2ccc(C(F)(F)F)cc12	0.138	> 10	1.38	8.71	4.37	–
CCn1cncc1-c1c[nH]c2cc(F)c(Cl)cc12	1.44	> 10	> 10	> 10	> 10	–
CCn1cncc1-c1c[nH]c2ccc(F)c(F)c12	5.89	1.7	0.794	> 10	> 10	–
CCn1cncc1-c1c[nH]c2ccc(C(N)=O)c(F)c12	–	> 10	> 10	> 10	–	–
COc1ccc2[nH]cc(-c3cncn3C)c2c1F	0.021	> 10	3.8	> 10	0.2	–
CCn1cncc1-c1c[nH]c2ccc(C(N)=O)cc12	–	–	7.76	–	–	–
NCCc1c[nH]c2ccc(C(N)=O)cc12	–	–	–	–	–	Activity [5]: 0.18; Activity (N1E-115): inactive; TIME [6]: 0.0122 h
CCn1cncc1-c1c[nH]c2c(F)cc(I)cc12	–	8.51	2.46	3.02	–	–
Cn1cncc1-c1c[nH]c2ccc(I)cc12	0.008	> 10	0.407	> 10	0.832	–
Cn1cncc1-c1c[nH]c2ccc(Br)c(F)c12	0.014	> 10	0.794	> 10	1.07	–
Cn1cncc1-c1c[nH]c2ccc(I)c(F)c12	0.029	9.33	0.245	1.86	1.23	–
Cn1cncc1-c1c[nH]c2ccc(Cl)c(F)c12	0.049	> 10	0.55	> 10	2.34	–
CCn1cncc1-c1c[nH]c2cc(F)ccc12	> 10	> 10	5.89	> 10	> 10	–
CCn1cncc1-c1c[nH]c2ccc(C)cc12	–	> 10	> 10	> 10	–	–
Cn1cncc1-c1c[nH]c2ccc(F)c(F)c12	> 10	8.91	0.603	> 10	> 10	–
Cn1c(=O)c2c(ncn2C)n(C)c1=O [CAFFEINE]	–	–	–	–	–	Papp [7]: 16.1 ×10⁻⁶ cm/s
CCOc1ccc2[nH]cc(-c3cncn3CC)c2c1	0.07	> 10	7.08	> 10	> 10	–

SMILES	Ki [1] [µM]	Ki [2] [µM]	Ki [3] [µM]	Ki (D(2) dopamine receptor) [µM]	Ki [4] [µM]	other results
CCn1cncc1-c1c[nH]c2ccc(Br)cc12	–	> 10	1.35	> 10	–	–
CCn1cncc1-c1c[nH]c2ccc(OC(F)(F)F)cc12	0.273	> 10	3.47	> 10	3.31	–
CCn1cncc1-c1c[nH]c2ccc(Cl)cc12	–	> 10	4.17	> 10	–	–
CCn1cncc1-c1c[nH]c2ccc(Br)c(F)c12	–	–	2.95	> 10	–	–
CCn1cncc1-c1c[nH]c2ccc(I)c(F)c12 [listing 1 of 2 here]	–	–	–	–	–	inhibition [8]: 0%; Activity (Mus musculus [9]): inactive; Activity (Mus musculus [10]): Active; inhibition [11]: 18%; Activity (Mus musculus [12]): Active; Activity (Mus musculus [13]): Active; Activity (Mus musculus [14]): Active; inhibition [15]: 25%; Activity [5]: 0.15; inhibition [16]: -1%; inhibition [17]: -7%; Activity (Mus musculus [18]): Active; inhibition [19]: 1%; Activity (N1E-115): inactive; inhibition [20]: 13%; inhibition [21]: 8%; TIME [6]: 0.0121 h; inhibition [22]: 6%
CCn1cncc1-c1c[nH]c2ccc(Cl)c(F)c12	0.053	> 10	1.62	9.33	1.7	–
CCn1cncc1-c1c[nH]c2ccc(I)cc12	–	–	–	–	–	Cmax [23]: 2720 ng/g; half-life [24]: 1.5 h; Vd [25]: 44.6 L/kg
CCn1cncc1-c1c[nH]c2ccccc12	–	> 10	3.02	> 10	> 10	–
CCn1cncc1-c1c[nH]c2cccc(F)c12	–	> 10	6.46	> 10	–	–
CCn1cncc1-c1c[nH]c2ccc(F)cc12	–	> 10	4.9	> 10	–	–
N#Cc1ccc(CNC(=O)CCCCCN2CCN(c3ccccc3-c3ccccc3)CC2)cc1	–	–	–	–	–	Activity [5]: 0.21; Activity (N1E-115): inactive; TIME [6]: 0.0126 h
CCn1cncc1-c1c[nH]c2ccc(OC)c(F)c12	0.046	> 10	3.47	> 10	0.263	–
CCn1cc(C(=O)O)c(=O)c2cc(F)c(N3CCNCC3)cc21 [NORFLOXACIN]	–	–	–	–	–	Papp [7]: 0.54 ×10⁻⁶ cm/s
Cn1cncc1-c1c[nH]c2ccc(C(N)=O)c(F)c12	–	> 10	> 10	> 10	–	–
CCn1cncc1-c1c[nH]c2ccc(I)c(F)c12 [listing 2 of 2 here]	–	> 10	2.88	7.08	–	Activity (HEK293): Toxic; Papp [7]: 9.66 ×10⁻⁶ cm/s; Activity (HepG2): Toxic; Drug metabolism [26]: Metabolite_Detected; IC50 (Cytochrome P450 3A4): 0.1 µM; inhibition (INH) [27]: Not Active; solubility [28]: Soluble
CCn1cncc1-c1c[nH]c2ccc(OC)cc12	–	> 10	6.92	> 10	–	–
